{"source": "patent US20180271792A1", "about": "“ORAL DELIVERY OF PHYSIOLOGICALLY ACTIVE SUBSTANCES” (Rezolute, Inc., priority 2017, published 2018)", "key": {"blood glucose": {"tested_on": "blood glucose", "assay": "Blood glucose in rats after oral gavage or subcutaneous dosing", "assay_type": "in vivo", "conditions": "subcutaneous 0.3 IU/kg", "protocol": "The peptide and oil for formulations 44-47 were sonicated until they appeared cloudy but homogenous. Then the remaining ingredients were added to each sample. The samples were sonicated again until they appeared cloudy but homogenous. The samples were stored overnight at room temperature. Normal SD Rats (5 rats/group) were fasted overnight before being dosed by oral gavage at insulin equivalent dosage of 75 IU/kg. For comparison, a fifth group (sample 48) was dosed with Humulin R (recombinant human insulin) subcutaneously at 0.3 IU/kg. Blood was collected at predose (−30 min) and post dose (10 min, 30 min, 1 h, 1.5 h, 2 h, 3 h, 4 h, 6 h, 8 h) for glucose measurements by a glucometer. […]"}, "[1]": {"conditions": "rat, in vivo, po", "procedure": "In forming samples 12-15, the insulin-PEG (or insulin-PEG inclusion complex) and the fish oil were sonicated for 30 minutes. The DPC was then added to the sonicated mixture and the mixture was briefly swirled or vortexed to mix. The resulting mixtures were kept at room temperature for 1 hour. The samples were administered via an oral gavage to rats at 150 IU/kg (for 5 kDa PEG) and 75 IU/kg (for 2 kDa PEG). At specified intervals, blood was collected from the jugular vein and analyzed for glucose values."}, "[2]": {"conditions": "cited from earlier work"}}, "data": [{"substance": "48: Humulin R (recombinant human insulin) dosed subcutaneously at 0.3 IU/kg [Sample 48]", "values": [{"measurement": "time glucose back at baseline", "setting": "blood glucose; Example 14", "value": 3, "unit": "h"}]}, {"substance": "insulin-PEG (2 kDa): human insulin conjugated with a 2 kDa PEG", "values": [{"measurement": "% of the insulin-PEG permeating through the cell layer after 3 hours", "setting": "Caco-2 monolayer", "value": 1, "unit": "%"}, {"measurement": "serum insulin-PEG / absorption", "setting": "[1]", "value": "better absorbed than 5 kDa PEG"}]}, {"substance": "Sample 18: 0.011 mg/kg insulin, administered subcutaneously", "values": [{"measurement": "time glucose back to baseline (~60 mg/dL)", "setting": "blood glucose; Example 10", "value": "about 3 hours"}]}, {"substance": "Sample 17: 0.015 mg/kg insulin-PEG (2 kDa), administered subcutaneously", "values": [{"measurement": "time glucose back to baseline (~60 mg/dL)", "setting": "blood glucose; Example 10", "value": "about 4 hours"}]}, {"substance": "Sample 19: 0.011 mg/kg insulin, administered subcutaneously", "values": [{"measurement": "time glucose back to baseline (~60 mg/dL)", "setting": "blood glucose; Example 11", "value": "about 3 hours"}, {"measurement": "reduction in blood glucose to, within 30 minutes", "setting": "blood glucose; Example 11, all rats", "value": 20, "unit": "mg/dL"}]}, {"substance": "GLP-1: a 31 amino acid peptide, an incretin, a hormone that can decrease blood glucose levels", "values": [{"measurement": "in vivo half-life", "setting": "[2]", "value": "less than two"}]}]}
